Test results as given in ChEMBL document CHEMBL1154199, “Design, synthesis and evaluation of novel 5,6-dimethoxy-1-oxo-2,3-dihydro-1H-2-indenyl-3,4-substituted phenyl methanone analogues” (Bioorg Med Chem Lett, 2009).
pIC50: −log10 of the molar value.

Target: Acetylcholinesterase (Electrophorus electricus, UniProt O42275)
Assay: Inhibition of Electrophorus electricus AChE by Ellman's method
Conditions: for pIC50: read-out: IC50; call rule not given here

Chain of Acetylcholinesterase (O42275 whole entry): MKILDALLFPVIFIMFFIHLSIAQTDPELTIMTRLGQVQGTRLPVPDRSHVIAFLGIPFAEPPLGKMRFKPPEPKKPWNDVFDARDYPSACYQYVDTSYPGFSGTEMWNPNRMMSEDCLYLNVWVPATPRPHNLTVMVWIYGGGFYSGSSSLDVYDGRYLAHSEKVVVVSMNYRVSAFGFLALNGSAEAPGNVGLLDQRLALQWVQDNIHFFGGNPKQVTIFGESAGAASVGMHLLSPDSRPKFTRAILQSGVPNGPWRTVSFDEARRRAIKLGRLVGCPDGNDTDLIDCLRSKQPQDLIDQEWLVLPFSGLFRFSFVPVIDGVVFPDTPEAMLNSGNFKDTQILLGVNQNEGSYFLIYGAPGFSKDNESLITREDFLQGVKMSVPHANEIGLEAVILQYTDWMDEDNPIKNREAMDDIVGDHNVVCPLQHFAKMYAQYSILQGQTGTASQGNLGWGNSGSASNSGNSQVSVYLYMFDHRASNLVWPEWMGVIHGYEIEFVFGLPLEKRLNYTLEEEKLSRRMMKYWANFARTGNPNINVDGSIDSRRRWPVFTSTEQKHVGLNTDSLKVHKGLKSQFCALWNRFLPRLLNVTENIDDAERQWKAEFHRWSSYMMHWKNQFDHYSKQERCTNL

Compound	pIC50	IC50
COc1cc2c(cc1OC)C(=O)C(C(=O)c1c(Cl)cccc1Cl)C2 (centres undefined)	3.99	–
COc1cc2c(cc1OC)C(=O)C(C(=O)c1cccc([N+](=O)[O-])c1)C2 (centres undefined)	–	Not Active
COc1cc2c(cc1OC)C(=O)C(C(=O)c1cccs1)C2 (centres undefined)	5.07	–
COc1cc2c(cc1OC)C(=O)C(C(=O)c1ccc(Br)cc1)C2 (centres undefined)	4.35	–
COc1cc2c(cc1OC)C(=O)C(C(=O)c1ccc(C#N)cc1)C2 (centres undefined)	4.28	–
COc1cc2c(cc1OC)C(=O)C(C(=O)c1ccc(N(C)C)cc1)C2 (centres undefined)	4.53	–
COc1ccc(C(=O)C2Cc3cc(OC)c(OC)cc3C2=O)cc1 (centres undefined)	5.21	–
COc1cc2c(cc1OC)C(=O)C(C(=O)c1ccc(Cl)cc1)C2 (centres undefined)	4.39	–
COc1cc2c(cc1OC)C(=O)C(C(=O)c1ccccc1)C2 (centres undefined)	4.68	–
COc1ccc(C(=O)C2Cc3cc(OC)c(OC)cc3C2=O)cc1OC (centres undefined)	5.37	–
COc1cc2c(cc1OC)C(=O)C(C(=O)c1cc(OC)c(OC)c(OC)c1)C2 (centres undefined)	5.57	–
COc1cc2c(cc1OC)C(=O)C(C(=O)c1ccc(F)cc1)C2 (centres undefined)	4.38	–
COc1cc2c(cc1OC)C(=O)C(C(=O)c1ccccc1Cl)C2 (centres undefined)	4.19	–
COc1cc2c(cc1OC)C(=O)C(C(=O)c1ccco1)C2 (centres undefined)	5.03	–
